Experimental findings from US10538567B2, “Compounds as peptidic trigonal GLP1/glucagon/GIP receptor agonists” (priority 2016, dated 2020) are described below.

Series [1] in a line: Dynamic light scattering, hydrodynamic radius as surrogate for DLS interaction parameter kD. Format: physicochemical. The note with it: for Delta Rh [nm] = Rh5 − Rh1: DLS buffer system A pH 4.5; for Rh1 [nm] c = 1 mg/ml / Rh5 [nm] c = 5 mg/ml: hydrodynamic radius, DLS buffer system A pH 4.5, method C, 25° C. An excerpt:
A monochromatic and coherent light beam (laser) is used to illuminate the liquid sample. Dynamic Light Scattering (DLS) measures light scattered from particles (1 nm≤radius≤1 μm) that undergo Brownian motion. This motion is induced by collisions between the particles and solvent molecules that themselves are moving due to their thermal energy. The diffusional motion of the particles results in temporal fluctuations of the scattered light [Pecora, R. Dynamic Light Scattering: Applications of Photon Correlation Spectroscopy, Plenum Press, 1985].
The scattered light intensity fluctuations are recorded and transformed into an autocorrelation function. By fitting the autocorrelation curve to an exponential function, the diffusion coefficient D of the particles in solution can be derived. The diffusion coefficient is then used to calculate the hydrodynamic radius Rh (or apparent Stokes radius) through the Stokes-Einstein equation assuming spherical particles. This calculation is defined in ISO 13321 and ISO 22412 [International Standard ISO13321 Methods for Determination of Particle Size Distribution Part 8: Photon Correlation Spectroscopy, International Organisation for Standardisation (ISO) 1996; International Standard ISO22412 Particle Size Analysis—Dynamic Light Scattering, International Organisation for Standardisation (ISO) 2008].
For every peptide solution, the hydrodynamic radius Rh and the diffusion constant D (related via the Stokes-Einstein equation) were determined as an average over triplicates. Both parameters were determined at different peptide concentrations (e.g., Rh1 and D1: 1 mg/ml and Rh5 and D5: 5 mg/ml) in the same buffer system. The difference of these parameters between low and high peptide concentration is a surrogate for the DLS interaction parameter kD. Rh5<Rh1 or D5>D1 correspond to kD>0 and therefore to repulsive inter-particle interactions that result in improved physical (or colloidal) stability.
DLS buffer system A) 25 mM acetate buffer pH 4.5, 3 mg/mL L-Methionine, 2.7 mg/mL m-cresol, 18 mg/mL Glycerol 85%
DLS Method C: DLS measurements were performed on a DynaPro Plate Reader II (Wyatt Technology, Santa Barbara, Calif., US) and using one of the following black, low volume, and non-treated plates: polystyrene 384 assay plate with clear bottom (Corning, N.Y., US), polystyrene 96 assay plate with clear bottom (Corning, N.Y., US), cyclo olefin polymer (COP) 384 assay plate with clear bottom (Aurora, Mont., US), or polystyrene 384 assay plate with clear bottom (Greiner Bio-One, Germany). The data were processed with the Dynamics software provided by Wyatt Technology. Parameters of the particle size distribution were determined with non-negatively constrained least squares (NNLS) methods using DynaLS algorithms. Measurements were taken at 25° C. with an 830 nm laser light source at an angle of 158°.
The hydrodynamic radius Rh of peptide samples was determined at different peptide concentrations (1 mg/ml and 5 mg/ml) in DLS buffer system A using DLS method C as described in Methods as surrogate for the DLS interaction parameter kD.

The next series concerns the target T1, human glucagon receptor (Homo sapiens, UniProt P47871).
T1 construct: expressed in transfected cells; host or cells: HEK-293
Kind of series: cAMP response (HTRF) of HEK-293 cells stably expressing human glucagon receptor. The format is cell-based. The note with it: Table 8; read-out: EC50 hGlucagon R. The procedure: cAMP content of cells was determined using a kit from Cisbio Corp. (cat. no. 62AM4PEJ) based on HTRF (Homogenous Time Resolved Fluorescence). For preparation, cells were split into T175 culture flasks and grown overnight to near confluency in medium (DMEM/10% FBS). Medium was then removed and cells washed with PBS lacking calcium and magnesium, followed by proteinase treatment with accutase (Sigma-Aldrich cat. no. A6964). Detached cells were washed and resuspended in assay buffer (1×HBSS; 20 mM HEPES, 0.1% BSA, 2 mM IBMX) and cellular density determined. They were then diluted to 400000 cells/ml and 25 μl-aliquots dispensed into the wells of 96-well plates. For measurement, 25 μl of test compound in assay buffer was added to the wells, followed by incubation for 30 minutes at room temperature.
Potencies of peptidic compounds at the GLP-1, glucagon and GIP receptors were determined by exposing cells expressing human glucagon receptor (hGlucagon R), human GIP receptor (hGIP-R) or human GLP-1 receptor (hGLP-1 R) to the listed compounds at increasing concentrations and measuring the formed cAMP as described in Methods.

A further series deals with T2, human GIP receptor (Homo sapiens, UniProt P48546).
T2 construct: expressed in transfected cells; host or cells: HEK-293
T2 sequence (P48546 22-466): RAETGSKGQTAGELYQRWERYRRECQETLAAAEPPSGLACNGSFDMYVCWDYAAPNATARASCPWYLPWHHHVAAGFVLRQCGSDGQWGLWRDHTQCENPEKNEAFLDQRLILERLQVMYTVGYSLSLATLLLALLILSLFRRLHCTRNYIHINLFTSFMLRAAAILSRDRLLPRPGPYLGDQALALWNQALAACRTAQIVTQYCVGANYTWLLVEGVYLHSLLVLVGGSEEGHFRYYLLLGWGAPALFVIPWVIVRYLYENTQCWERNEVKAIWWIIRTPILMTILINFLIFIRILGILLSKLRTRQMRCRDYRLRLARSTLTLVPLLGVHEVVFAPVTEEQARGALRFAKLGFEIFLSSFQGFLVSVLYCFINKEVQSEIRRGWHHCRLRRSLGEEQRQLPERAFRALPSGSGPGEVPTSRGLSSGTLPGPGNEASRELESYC
Briefly: cAMP response (HTRF) of HEK-293 cells stably expressing human GIP receptor. The format is cell-based. The note with it: Table 8; read-out: EC50 hGIP R. The essentials: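 HEK-293 cells stably expressing human GIP receptor were incubated with compound for 30 min at room temperature in HBSS/20 mM HEPES/0.1% BSA with 2 mM IBMX. cAMP was measured by HTRF (665/616 nm ratio) after 1 h with detection reagents in lysis buffer; EC50 is the concentration giving 50% of maximal response.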

As usually defined, the EC50 is the concentration at which the effect is half-maximal.

Molecules are shown by their SMILES. Numbered stars: 1 amine (or outer) side, 2 acyl side, 3 side chain; on linkers, the order of the positions; unused ones are H or OH. Square brackets hold non-standard residues; d marks the D form. Side chains are listed from the residue outwards. Peptide text beside a SMILES is read from it. * marks the point of attachment. γGlu = O=C(O)[C@H](CCC(=O)[*:2])N[*:1]; Palmitoyl = CCCCCCCCCCCCCCCC(=O)*; Aib = CC(C)(N)C(=O)O

T1 sequence (P47871 26-477): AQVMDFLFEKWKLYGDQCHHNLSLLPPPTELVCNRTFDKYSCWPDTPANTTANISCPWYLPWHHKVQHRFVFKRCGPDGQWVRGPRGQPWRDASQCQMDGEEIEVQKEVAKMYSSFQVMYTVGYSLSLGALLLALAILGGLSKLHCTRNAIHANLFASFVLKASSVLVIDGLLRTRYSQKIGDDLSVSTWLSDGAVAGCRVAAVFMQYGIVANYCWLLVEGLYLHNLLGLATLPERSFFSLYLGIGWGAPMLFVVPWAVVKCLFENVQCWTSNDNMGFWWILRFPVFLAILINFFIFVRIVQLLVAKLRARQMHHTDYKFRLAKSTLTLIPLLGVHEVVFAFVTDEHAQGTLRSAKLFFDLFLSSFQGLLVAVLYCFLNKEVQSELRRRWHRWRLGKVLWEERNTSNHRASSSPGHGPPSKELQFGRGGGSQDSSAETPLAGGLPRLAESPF

With `CCCCCCCCCCCCCCCC(=O)N[C@@H](CCC(=O)N[C@@H](CCC(=O)NCCCC[C@H](NC(=O)[C@H](CC(C)C)NC(=O)[C@H](CCCCN)NC(=O)[C@H](CO)NC(=O)[C@H](CC(C)C)NC(=O)[C@H](CC(=O)O)NC(=O)[C@H](CO)NC(=O)[C@@H](NC(=O)[C@H](Cc1ccccc1)NC(=O)[C@@H](NC(=O)CNC(=O)[C@H](Cc1c[nH]cn1)NC(=O)C(C)(C)NC(=O)[C@@H](N)Cc1c[nH]cn1)[C@@H](C)O)[C@@H](C)O)C(=O)N[C@@H](CCC(=O)O)C(=O)N[C@@H](CCC(=O)O)C(=O)N[C@@H](CCC(N)=O)C(=O)N[C@@H](CCCNC(=N)N)C(=O)N[C@@H](CCC(N)=O)C(=O)N[C@@H](CCCCN)C(=O)N[C@@H](CCC(=O)O)C(=O)N[C@@H](Cc1ccccc1)C(=O)N[C@H](C(=O)N[C@@H](CCC(=O)O)C(=O)N[C@@H](Cc1c[nH]c2ccccc12)C(=O)N[C@@H](CC(C)C)C(=O)N[C@@H](CCCCN)C(=O)N[C@@H](C)C(=O)NCC(=O)NCC(=O)N1CCC[C@H]1C(=O)N1CCC[C@H]1C(=O)N[C@@H](CO)C(=O)NC(C)(C)C(=O)N[C@@H](CCCCN)C(=O)N1CCC[C@H]1C(=O)N1CCC[C@H]1C(=O)N1CCC[C@H]1C(=O)N[C@@H](CCCCN)C(N)=O)[C@@H](C)CC)C(=O)O)C(=O)O` [SEQ ID NO: 8, H-Aib-H-G-T-F-T-S-D-L-S-K-L-K[gGlu-gGlu-Palm]-E-E-Q-R-Q-K-E-F-I-E-W-L-K-A-G-G-P-P-S-Aib-K-P-P-P-K-NH2], in series [1], the “Delta Rh [nm] = Rh5 − Rh1” value is reported as −0.4 nm, the “Rh1 [nm] c = 1 mg/ml” value is recorded as 3.0 nm and the “Rh5 [nm] c = 5 mg/ml” value is 2.6 nm. At human glucagon receptor, the EC50 is 2 pM.
Consider `CCCCCCCCCCCCCCCC(=O)N[C@@H](CCC(=O)N[C@@H](CCC(=O)NCCCC[C@H](NC(=O)[C@H](CC(C)C)NC(=O)[C@H](CCCCN)NC(=O)[C@H](CO)NC(=O)[C@H](CC(C)C)NC(=O)[C@H](CC(=O)O)NC(=O)[C@H](CO)NC(=O)[C@@H](NC(=O)[C@H](Cc1ccccc1)NC(=O)[C@@H](NC(=O)CNC(=O)[C@H](Cc1c[nH]cn1)NC(=O)C(C)(C)NC(=O)[C@@H](N)Cc1c[nH]cn1)[C@@H](C)O)[C@@H](C)O)C(=O)N[C@@H](CCC(=O)O)C(=O)N[C@@H](CCC(=O)O)C(=O)N[C@@H](CCC(N)=O)C(=O)N[C@@H](CCCNC(=N)N)C(=O)N[C@@H](CCC(N)=O)C(=O)NC(C)(C)C(=O)N[C@@H](CCC(=O)O)C(=O)N[C@@H](Cc1ccccc1)C(=O)N[C@H](C(=O)N[C@@H](CCC(=O)O)C(=O)N[C@@H](Cc1c[nH]c2ccccc12)C(=O)N[C@@H](CC(C)C)C(=O)N[C@@H](CCCCN)C(=O)N[C@@H](C)C(=O)N[C@H](C)C(=O)NCC(=O)N1CCC[C@H]1C(=O)N1CCC[C@H]1C(=O)N[C@@H](CO)C(=O)NC(C)(C)C(=O)N[C@@H](CCCCN)C(=O)N1CCC[C@H]1C(=O)N1CCC[C@H]1C(=O)N1CCC[C@H]1C(=O)N[C@@H](CCCCN)C(N)=O)[C@@H](C)CC)C(=O)O)C(=O)O` [SEQ ID NO: 11, H-Aib-H-G-T-F-T-S-D-L-S-K-L-K[gGlu-gGlu-Palm]-E-E-Q-R-Q-Aib-E-F-I-E-W-L-K-A-dAla-G-P-P-S-Aib-K-P-P-P-K-NH2] (H-H[Aib]HGTFTSDLSKLK([γGlu-γGlu-Palmitoyl])EEQRQ[Aib]EFIEWLKA[dA]GPPS[Aib]KPPPK-NH2), for which the EC50 on human glucagon receptor turned out to be 2.1 pM; at human GIP receptor, 1.5 pM.
`CCCCCCCCCCCCCCCC(=O)N[C@@H](CCC(=O)N[C@@H](CCC(=O)NCCCC[C@H](NC(=O)[C@H](CC(C)C)NC(=O)[C@H](CCCCN)NC(=O)[C@H](CO)NC(=O)[C@H](CC(C)C)NC(=O)[C@H](CC(=O)O)NC(=O)[C@H](CO)NC(=O)[C@@H](NC(=O)[C@H](Cc1ccccc1)NC(=O)[C@@H](NC(=O)CNC(=O)[C@H](Cc1c[nH]cn1)NC(=O)C(C)(C)NC(=O)[C@@H](N)Cc1c[nH]cn1)[C@@H](C)O)[C@@H](C)O)C(=O)N[C@@H](CCC(=O)O)C(=O)N[C@@H](CCC(=O)O)C(=O)N[C@@H](CCC(N)=O)C(=O)N[C@@H](CCCNC(=N)N)C(=O)N[C@@H](CCC(N)=O)C(=O)NC(C)(C)C(=O)N[C@@H](CCC(=O)O)C(=O)N[C@@H](Cc1ccccc1)C(=O)N[C@H](C(=O)N[C@@H](CCC(=O)O)C(=O)N[C@@H](Cc1c[nH]c2ccccc12)C(=O)N[C@@H](CC(C)C)C(=O)N[C@@H](CCCCN)C(=O)N[C@@H](C)C(=O)N[C@H](C)C(=O)NCC(=O)N[C@@H](Cc1c[nH]cn1)C(=O)N1CCC[C@H]1C(=O)N[C@@H](CO)C(=O)NC(C)(C)C(=O)N[C@@H](CCCCN)C(=O)N1CCC[C@H]1C(=O)N1CCC[C@H]1C(=O)N1CCC[C@H]1C(=O)N[C@@H](CCCCN)C(N)=O)[C@@H](C)CC)C(=O)O)C(=O)O` [SEQ ID NO: 13, H-Aib-H-G-T-F-T-S-D-L-S-K-L-K[gGlu-gGlu-Palm]-E-E-Q-R-Q-Aib-E-F-I-E-W-L-K-A-dAla-G-H-P-S-Aib-K-P-P-P-K-NH2] (H-H[Aib]HGTFTSDLSKLK([γGlu-γGlu-Palmitoyl])EEQRQ[Aib]EFIEWLKA[dA]GHPS[Aib]KPPPK-NH2): in series [1], the “Delta Rh [nm] = Rh5 − Rh1” value is listed as −0.3 nm, the “Rh1 [nm] c = 1 mg/ml” value came out at 2.8 nm and the “Rh5 [nm] c = 5 mg/ml” value is listed as 2.5 nm. Besides, on human glucagon receptor, the EC50 was 2.1 pM.
